Results: ChEMBL document CHEMBL4334438, “Discovery of novel glycogen synthase kinase-3α inhibitors: Structure-based virtual screening, preliminary SAR and biological evaluation for treatment of acute myeloid leukemia” (Eur J Med Chem, 2019)
Calls of active or inactive are those of the source. The calls are words filed in the database; no cut-off is given here.

How the values were obtained:
Homo sapiens = species: Homo sapiens; experiment: Selectivity index, ratio of IC50 for inhibition of human GSK-3beta H350L mutant (2 to end residues) to IC50 for inhibition of human GSK-3alpha S449A mutant (2 to end residues)
[1] = test system: Glycogen synthase kinase-3 alpha (Homo sapiens), P49840 [UNDEFINED MUTATION]; experiment: Inhibition of human GSK-3alpha S449A mutant (2 to end residues) at 10 uM using phospho GS2 peptide as substrate after 40 mins in presence of [gamma-33ATP] by scintillation counting method relative to control
Glycogen synthase kinase-3 alpha (Homo sapiens), P49840 [UNDEFINED MUTATION], sequence (P49840 whole entry, looked up, stated change not applied): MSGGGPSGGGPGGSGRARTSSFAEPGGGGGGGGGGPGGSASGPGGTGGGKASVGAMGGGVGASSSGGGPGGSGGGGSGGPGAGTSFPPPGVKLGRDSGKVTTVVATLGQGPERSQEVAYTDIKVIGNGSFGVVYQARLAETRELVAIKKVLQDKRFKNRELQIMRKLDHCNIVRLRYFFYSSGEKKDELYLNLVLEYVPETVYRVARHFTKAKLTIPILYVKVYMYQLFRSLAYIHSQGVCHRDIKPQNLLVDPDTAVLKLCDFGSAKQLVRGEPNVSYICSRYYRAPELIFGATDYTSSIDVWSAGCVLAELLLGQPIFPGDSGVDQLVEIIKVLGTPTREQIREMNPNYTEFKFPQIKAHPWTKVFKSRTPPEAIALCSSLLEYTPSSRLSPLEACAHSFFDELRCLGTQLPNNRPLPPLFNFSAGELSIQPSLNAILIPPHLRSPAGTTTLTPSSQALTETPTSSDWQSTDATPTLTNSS

[2] = target: Glycogen synthase kinase-3 beta (Homo sapiens, UniProt P49841, H350L); experiment: Inhibition of human GSK-3beta H350L mutant (2 to end residues) at 10 uM using phospho GS2 peptide as substrate after 40 mins by [gamma-33ATP] radiometric assay
Glycogen synthase kinase-3 beta (Homo sapiens, UniProt P49841, H350L), sequence (P49841 whole entry, looked up, stated change not applied): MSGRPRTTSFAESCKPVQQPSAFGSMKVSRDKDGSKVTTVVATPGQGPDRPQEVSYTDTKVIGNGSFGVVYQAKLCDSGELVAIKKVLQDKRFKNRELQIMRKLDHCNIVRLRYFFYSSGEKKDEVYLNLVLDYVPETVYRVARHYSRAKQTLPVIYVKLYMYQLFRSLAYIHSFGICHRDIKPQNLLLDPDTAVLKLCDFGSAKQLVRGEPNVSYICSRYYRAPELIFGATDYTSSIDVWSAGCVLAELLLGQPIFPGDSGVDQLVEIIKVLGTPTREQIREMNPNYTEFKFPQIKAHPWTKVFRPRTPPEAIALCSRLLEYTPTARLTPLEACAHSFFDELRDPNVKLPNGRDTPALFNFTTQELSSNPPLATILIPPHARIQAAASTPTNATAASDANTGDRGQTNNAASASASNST

[3] = target: T1, Glycogen synthase kinase-3 alpha (Homo sapiens, UniProt P49840); experiment: Inhibition of human GSK-3alpha S449A mutant (2 to end residues) using phospho GS2 peptide as substrate after 40 mins in presence of [gamma-33ATP] by scintillation counting method
T1 sequence (P49840 whole entry, the tested form may be a part): as the sequence (P49840 whole entry, looked up, stated change not applied) above

GSK-3beta (H350L mutant) = GSK-3beta (H350L mutant) (Homo sapiens, UniProt P49841, H350L); experiment: Inhibition of human GSK-3beta H350L mutant (2 to end residues) at 10 uM using phospho GS2 peptide as substrate after 40 mins by [gamma-33ATP] radiometric assay relative to control; conditions: human GSK-3beta H350L mutant enzyme (residues 2 to end), probe phospho GS2 peptide
GSK-3beta (H350L mutant), sequence (P49841 whole entry, looked up, stated change not applied, the tested form may be a part): as the sequence (P49841 whole entry, looked up, stated change not applied) above

[4] = target: T2, Glycogen synthase kinase-3 beta (Homo sapiens, UniProt P49841); experiment: Inhibition of human GSK-3beta by mobility shift micro-fluidic assay
T2 sequence (P49841 whole entry): as the sequence (P49841 whole entry, looked up, stated change not applied) above

NB-4 [5] = experiment: Antiproliferative activity against human NB4 cells assessed as reduction in viability at 1 to 30 uM after 3 days by SRB assay; type: functional, cell-based
NB-4 [6] = experiment: Induction of granulocytic differentiation in human NB4 cells assessed as increase in CD11c-APC positive cells at 10 to 30 uM after 6 days by flow cytometry analysis; type: functional, cell-based
NB-4 [7] = experiment: Inhibition of colony formation in human NB4 cells at 30 uM preincubated for 72 hrs followed by compound washout and measured after 7 to 10 days; type: functional, cell-based
HL-60 [8] = experiment: Induction of granulocytic differentiation in human HL60 cells assessed as increase in CD11b-APC-Cy7 positive cells at 10 to 30 uM after 6 days by flow cytometry analysis; type: functional, cell-based
HL-60 [9] = experiment: Antiproliferative activity against human HL60 cells assessed as reduction in viability at 1 to 30 uM after 3 days by SRB assay; type: functional, cell-based
NB-4 [10] = experiment: Induction of granulocytic differentiation in human NB4 cells assessed as increase in CD14 positive cells at 10 to 30 uM after 6 days by FITC staining based flow cytometry analysis; type: functional, cell-based
HL-60 [11] = experiment: Induction of granulocytic differentiation in human HL60 cells assessed as increase in CD14-FITC positive cells at 10 to 30 uM after 6 days by flow cytometry analysis; type: functional, cell-based
HL-60 [12] = experiment: Induction of granulocytic differentiation in human HL60 granulocytic assessed as increase in CD11c-APC positive cells at 10 to 30 uM after 6 days by flow cytometry analysis; type: functional, cell-based
NB-4 [13] = experiment: Induction of granulocytic differentiation in human NB4 cells assessed as increase in CD11b-APC-Cy7 positive cells at 10 to 30 uM after 6 days by flow cytometry analysis; type: functional, cell-based
HL-60 [14] = experiment: Inhibition of colony formation in human HL60 cells at 30 uM preincubated for 72 hrs followed by compound washout and measured after 7 to 10 days; type: functional, cell-based
HL-60 [15] = experiment: Induction of monocytic differentiation in human HL60 cells assessed as increase in CD14-FITC positive cells at 30 uM after 6 days by flow cytometry analysis; type: functional, cell-based
NB-4 [16] = experiment: Induction of monocytic differentiation in human NB4 cells assessed as increase in CD14 positive cells at 30 uM after 6 days by FITC staining based flow cytometry analysis; type: functional, cell-based
[17] = target: T1, Glycogen synthase kinase-3 alpha; experiment: Inhibition of human GSK-3alpha using YRRAAVPPSPSLSRHSSPHQ(pS)EDEEE as substrate measured in presence of [gamma-33P]ATP by radiometric assay
HL-60 [18] = experiment: Induction of monocytic differentiation in human HL60 cells assessed as increase in CD11b-APC-Cy7 positive cells at 30 uM after 6 days by flow cytometry analysis; type: functional, cell-based
[19] = Activation of wnt/beta-catenin signalling pathway in human NB4 cells assessed as stabilization of beta-catenin at 30 uM after 24 hrs by Western blot analysis; type: cell-based
NB-4 [20] = experiment: Induction of monocytic differentiation in human NB4 cells assessed as increase in CD11c-APC positive cells at 30 uM after 6 days by flow cytometry analysis; type: functional, cell-based
HL-60 [21] = experiment: Induction of monocytic differentiation in human HL60 monocytic assessed as increase in CD11c-APC positive cells at 30 uM after 6 days by flow cytometry analysis; type: functional, cell-based
NB-4 [22] = experiment: Induction of monocytic differentiation in human NB4 cells assessed as increase in CD11b-APC-Cy7 positive cells at 30 uM after 6 days by flow cytometry analysis; type: functional, cell-based
[23] = target: T2, Glycogen synthase kinase-3 beta; experiment: Inhibition of human GSK-3beta using YRRAAVPPSPSLSRHSSPHQ(pS)EDEEE as substrate measured in presence of [gamma-33P]ATP by radiometric assay
[24] = Activation of wnt/beta-catenin signalling pathway in human HL60 cells assessed as stabilization of beta-catenin at 30 uM after 24 hrs by Western blot analysis; type: cell-based

inhibition [1] [%]	IC50 [2] [nM]	IC50 [3] [nM]	inhibition at 40 min, 10 µM (GSK-3beta (H350L mutant)) [%]	SMILES	other results
80 to 81	576	300	75	N=C1NC(=O)/C(=C\c2ccc(-c3ccc(Cl)c(Cl)c3)o2)S1	Ratio IC50 (Homo sapiens): 1.9
65 to 90	862	440	62	Cc1ccc(-c2ccc(/C=C3/NC(=S)NC3=O)o2)c(Br)c1	Ratio IC50 (Homo sapiens): 1.95
				CC[C@@]1(c2ccccc2)C2=C(CC(C)(C)CC2=O)Nc2n[nH]cc21	IC50 [4]: 515 nM
				CC1=C(/C=C/C(C)=C/C=C/C(C)=C/C(=O)O)C(C)(C)CCC1	Activity (NB-4 [5]): Active; Activity (NB-4 [6]): Active; inhibition (NB-4 [7]): Active; Activity (HL-60 [8]): Active; Activity (HL-60 [9]): Active; Activity (NB-4 [10]): Active; Activity (HL-60 [11]): Active; Activity (HL-60 [12]): Active; Activity (NB-4 [13]): Active; inhibition (HL-60 [14]): Active
71	1760	2680	65	N=C1NC(=O)/C(=C\c2ccc(-c3cc([N+](=O)[O-])ccc3Cl)o2)S1	
81	1430	301	77	Cc1ccc(-c2ccc(/C=C3/SC(=N)NC3=O)o2)cc1Cl	
				c1ccc(-c2noc(CSc3nnc(-c4ccncc4)o3)n2)cc1	Activity (HL-60 [15]): Active; Activity (NB-4 [16]): Active; Activity (NB-4 [5]): Active; IC50 [17]: 451 nM; Activity (HL-60 [18]): Active; Activity [19]: Active; Activity (NB-4 [20]): Active; Activity (HL-60 [21]): Active; Activity (HL-60 [9]): Active; Activity (NB-4 [22]): Active; IC50 [23]: 521 nM; Activity [24]: Active
97	743	309	91	O=C1NC(=S)N/C1=C/c1ccc(-c2ccc(C(=O)O)cc2)o1	
86	3720	557	72	CC(=O)/N=C1/NC(=O)/C(=C\c2ccc(-c3ccc(C(=O)O)cc3)o2)S1	
65	1190	710	55	CCCCOC(=O)c1cc(-c2ccc(/C=C3/NC(=S)NC3=O)o2)ccc1Cl	
88	405	159	81	CCCOC(=O)c1cc(-c2ccc(/C=C3/NC(=S)NC3=O)o2)ccc1Cl	
65	678	370	59	O=C1NC(=S)N/C1=C/c1ccc(-c2ccc(Cl)c(Cl)c2)o1	
82	1200	1880	93	N=C1NC(=O)/C(=C\c2ccc(-c3ccc(Cl)cc3Cl)o2)S1	
81	1890	1340	78	CN1C(=N)NC(=O)/C1=C\c1ccc(-c2ccc(F)cc2)o1	
84	917	609	86	O=C1NC(=S)N/C1=C/c1ccc(-c2ccccc2Cl)o1	

SMILES	inhibition [1] [%]	IC50 [2] [nM]	IC50 [3] [nM]	inhibition at 40 min, 10 µM (GSK-3beta (H350L mutant)) [%]	other results
O=C1NC(=O)C(c2cnc3ccccn23)=C1c1cn2c3c(cc(F)cc13)CN(C(=O)N1CCCCC1)CC2 [LY-2090314]	99	1.29	1.02	97	
